From US6495491B1, “Substituted cyanophenyl uracils” (Bayer Aktiengesellschaft, priority 1995, dated 2002)

What was measured:
Assay type in all cases: in vivo
Matricaria [1] = experiment: Pre-emergence test, Matricaria; settings: application rates between 8 and 125 g/ha, after three weeks
Procedure: (§1) Solvent: 5 parts by weight of acetone
(§2) Emulsifier: 1 part by weight of alkylaryl polyglycol ether
(§3) To produce a suitable preparation of active compound, 1 part by weight of active compound is mixed with the stated amount of solvent, the stated amount of emulsifier is added and the concentrate is diluted with water to the desired concentration.
(§4) Seeds of the test plants are sown in normal soil. After 24 hours, the soil is watered or sprayed with the preparation of the active compound. It is advantageous to keep the amount of water per unit area constant. The concentration of the active compound in the preparation is immaterial, only the amount of active compound applied per unit area matters.
(§5) After three weeks, the degree of damage to the plants is rated in % damage by comparison with the development of the untreated control.
(§6) 0%=no effect (like untreated control)

wheat = experiment: Pre-emergence test, crop tolerance wheat; settings: application rates between 8 and 125 g/ha, after three weeks
Procedure: as §1, §2, §3, §4, §5, §6

Matricaria [2] = experiment: Post-emergence test, Matricaria; settings: application rates between 30 and 500 g/ha, after three weeks
Procedure: as §1, §2, §3
(§7) Test plants which have a height of 5-15 cm are sprayed with the preparation of the active compound in such a way as to apply the particular amounts of active compound desired per unit area. The concentration of the spray liquor is chosen so that the particular desired amounts of active compound are applied in 2000 l of water/ha.
as §5, §6

Chenopodium [3] = experiment: Pre-emergence test, Chenopodium; settings: application rates between 8 and 125 g/ha, after three weeks
Procedure: as §1, §2, §3, §4, §5, §6

Abutilon [4] = experiment: Pre-emergence test, Abutilon; settings: application rates between 8 and 125 g/ha, after three weeks
Procedure: as §1, §2, §3, §4, §5, §6

Chenopodium [5] = experiment: Post-emergence test, Chenopodium; settings: application rates between 30 and 500 g/ha, after three weeks
Procedure: as §1, §2, §3, §7, §5, §6

Abutilon [6] = experiment: Post-emergence test, Abutilon; settings: application rates between 30 and 500 g/ha, after three weeks
Procedure: as §1, §2, §3, §7, §5, §6

Structure (SMILES): COc1cc(-n2c(=O)cc(C(F)(F)F)n(C)c2=O)c(F)cc1C#N [Example 2, 1-(4-cyano-2-fluoro-5-methoxy-phenyl)-3,6-dihydro-2,6-dioxo-3-methyl-4-trifluoromethyl-1(2H)-pyrimidine]
- degree of damage to the plants, % damage (Matricaria [1]): 100 %/o
- degree of damage to the plants, % damage (tolerance by crops) (wheat): 0%
- degree of damage to the plants, % damage (Matricaria [2]): 100%
- degree of damage to the plants, % damage (Chenopodium [3]): 100 %/o
- degree of damage to the plants, % damage (Abutilon [4]): 100%
- degree of damage to the plants, % damage (Chenopodium [5]): 100%
- degree of damage to the plants, % damage (Abutilon [6]): 100%
